This note sets out measurements from patent publication US6632829B2, “Sulfonamides and derivatives thereof that modulate the activity of endothelin” (Texas Biotechnology Corp., priority 1996, dated 2003).

A word on the pIC50: it is the IC50 on a negative log10 scale, so that one unit is a factor of ten.

Structures are written as SMILES. pIC50: −log10 of the molar value. “And” between values parts separate entries of the source, which are not always exact repeats. Identical values can stand only once. Counter-ions that a name gives are not always drawn.

The target of one assay is T1, human ETA receptors (Homo sapiens, UniProt P25101).
T1 construct: endogenous in cells; host or cells: TE 671 cells (ATCC HTB 139), membrane preparation
T1 sequence (P25101 21-427): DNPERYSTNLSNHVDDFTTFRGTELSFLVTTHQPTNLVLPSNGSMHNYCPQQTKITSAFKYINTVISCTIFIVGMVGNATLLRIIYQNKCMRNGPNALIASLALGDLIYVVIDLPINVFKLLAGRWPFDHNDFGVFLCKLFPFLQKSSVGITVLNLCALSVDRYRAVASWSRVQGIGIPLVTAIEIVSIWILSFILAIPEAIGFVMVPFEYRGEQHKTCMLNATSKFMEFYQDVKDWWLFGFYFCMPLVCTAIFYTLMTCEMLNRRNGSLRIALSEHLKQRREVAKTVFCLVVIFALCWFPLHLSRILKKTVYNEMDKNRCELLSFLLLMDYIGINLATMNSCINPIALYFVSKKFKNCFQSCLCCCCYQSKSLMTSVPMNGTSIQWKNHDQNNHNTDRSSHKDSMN
Description: Endothelin binding inhibition, Binding Test #1: competition with 125I-ET-1 for ETA receptors on TE 671 cell membranes. The note with it: incubation at 24° C. (values marked †). On the procedure: (§1) Cells from multiple flasks were collected by scraping, pooled and centrifuged for 10 min at 190×g. The cells were resuspended in phosphate buffered saline (PBS) containing 10 mM EDTA using a Tenbroeck homogenizer. The suspension was centrifuged at 4° C. at 57,800×g for 15 min, the pellet was resuspended in 5 mL of buffer A (5 mM HEPES buffer, pH 7.4 containing aprotinin (100 KIU/mL)) and then frozen and thawed once. 5 mL of Buffer B (5 mM HEPES Buffer, pH 7.4 containing 10 mM MnCl2 and 0.001% deoxyribonuclease Type 1) was added, the suspension mixed by inversion and then incubated at 37° C. for 30 minutes. The mixture was centrifuged at 57,800×g as described above, the pellet washed twice with buffer A and then resuspended in buffer C (30 mM HEPES buffer, pH 7.4 containing aprotinin (100 KIU/mL) to give a final protein concentration of 2 mg/mL and stored at −70° C. until use.
The membrane suspension (50 μL), containing up to 8 μg of membrane protein, was added to each of (A), (B), or (C). […] Alternatively, the incubation was conducted at 24° C.
The supernatant, containing unbound radioactivity, was decanted and the pellet counted on a Genesys multiwell gamma counter. The degree of inhibition of binding (D) was calculated according to the following equation: [formula]
Each test was generally performed in triplicate.
For the molecule `Cc1cc2c(cc1C=CCc1ccsc1S(=O)(=O)Nc1onc(C)c1Br)OCO2` [N-(4-bromo-3-methyl-5-isoxazolyl)-3-[2-methyl-4,5-(methylenedioxy)cinnamyl]thiophene-2-sulfonamide], the pIC50 is roughly 7.00.
Same read-out and setting: then `COc1ccc2c(S(=O)(=O)Nc3onc(C)c3Cl)c(Cc3ccc4c(c3)OCO4)sc2c1` [N-(4-chloro-3-methyl-5-isoxazolyl)-6-methoxy-2-[3,4-(methylenedioxy)benzyl]benzo[b]thiophene-3-sulfonamide], with roughly 5.70; and `Cc1cc(NC(=O)c2sccc2S(=O)(=O)Nc2onc(C)c2Cl)no1` [N-(4-chloro-3-methyl-5-isoxazolyl)-2-[(5-methyl-3-isoxazolyl)aminocarbonyl]thiophene-3-sulfonamide], with 7.25.
The same measure, in the same setting: to `Cc1noc(NS(=O)(=O)c2ccsc2C(N)=O)c1Br` [N-(4-bromo-3-methyl-5-isoxazolyl)-2-(aminocarbonyl)thiophene-3-sulfonamide] belongs 6.08; to `Cc1noc(NS(=O)(=O)c2ccsc2C(=O)Nc2cc3c(cc2C(=O)O)OCO3)c1Cl` [N-(4-chloro-3-methyl-5-isoxazolyl)2-{[2-carboxyl-4,5-(methylenedioxy)phenyl]aminocarbonyl}thiophene-3-sulfonamide], 5.84; to `Cc1noc(NS(=O)(=O)c2ccsc2CCc2ccc3c(c2)OCO3)c1Br` [N-(4-bromo-3-methyl-5-isoxazolyl)-2-[(3,4-methylenedioxy)phenethyl]thiophene-3-sulfonamide], 6.68.
Same read-out and setting: then `Cc1cc2c(cc1C(CC(=O)O)C(=O)c1sccc1S(=O)(=O)Nc1onc(C)c1Cl)OCO2` (stereo not drawn) [N-(4-chloro-3-methyl-5-isoxazolyl)-2-(α-carboxylmethyl-2-methyl-4,5-(methylenedioxy)phenylacetyl)thiophene-3-sulfonamide], with 7.09.
Turning to `CC(=O)c1cc2c(cc1NC(=O)c1sccc1S(=O)(=O)Nc1onc(C)c1C)OCO2` [N-(3,4-dimethyl-5-isoxazolyl)-2-{[2-acetyl-4,5-(methylenedioxy)phenyl]aminocarbonyl}thiophene-3-sulfonamide], the pIC50 was 7.49.
In the case of `Cc1cc(C)c(NC(=O)c2sccc2S(=O)(=O)Nc2onc(C)c2Cl)c(C)c1CN(C)C` [N-(4-chloro-3-methyl-5-isoxazolyl)-2-(3-dimethylaminomethyl-2,4,6-trimethylphenylaminocarbonyl)thiophene-3-sulfonamide, trifluoroacetic acid salt], the pIC50 is 7.87.
`Cc1noc(NS(=O)(=O)c2ccsc2C(=O)OC2CCOCC2)c1Cl` [N-(4-chloro-3-methyl-5-isoxazolyl)-2-[(4-oxacyclohexyl)oxycarbonyl]thiophene-3-sulfonamide] had a pIC50 of 5.86.
Still for that read-out and setting: to `Cc1nnc(NC(=O)c2sccc2S(=O)(=O)Nc2onc(C)c2Cl)s1` [N-(4-chloro-3-methyl-5-isoxazolyl)-2-[(2-methyl-1,3,4-thiadiazol-5-yl)aminocarbonyl]thiophene-3-sulfonamide] belongs 6.89; to `COc1cccc(-c2ccsc2S(=O)(=O)Nc2onc(C)c2Br)c1` [N-(4-bromo-3-methyl-5-isoxazolyl)-3-(3-methoxyphenyl)thiophene-2-sulfonamide], 6.48.
Same read-out and setting: to `COC(=O)c1cc(OC)c(OC)cc1NC(=O)c1sccc1S(=O)(=O)Nc1onc(C)c1Cl` [N-(4-chloro-3-methyl-5-isoxazolyl)-2-[(4,5-dimethoxy-2-methoxycarbonylphenyl)aminocarbonyl]thiophene-3-sulfonamide] belongs 6.26; to `Cc1cc2c(cc1C(C)C(=O)c1sccc1S(=O)(=O)Nc1onc(C)c1Cl)OCO2` (stereo not drawn) [N-(4-chloro-3-methyl-5-isoxazolyl)-2-(α-methyl-2-methyl-4,5-(methylenedioxy)phenylacetyl)thiophene-3-sulfonamide], 7.07; to `Cc1ccc(NC(=O)c2sccc2S(=O)(=O)Nc2onc(C)c2Cl)c(O)c1` [N-(4-chloro-3-methyl-5-isoxazolyl)-2-[2-hydroxy-4-methylphenyl)aminocarbonyl]thiophene-3-sulfonamide], 8.22.
Consider `COc1ccc(OC(=O)c2sccc2S(=O)(=O)Nc2onc(C)c2C)cc1` [N-(3,4-dimethyl-5-isoxazolyl)-2-[(4-methoxylphenoxy)carbonyl]thiophene-3-sulfonamide], for which the pIC50 is 5.23 and 5.60.

The target of another assay is T2, human ETB receptor (Homo sapiens, UniProt P24530).
T2 construct: expressed in transfected cells; host or cells: COS7 cells
T2 sequence (P24530 27-442): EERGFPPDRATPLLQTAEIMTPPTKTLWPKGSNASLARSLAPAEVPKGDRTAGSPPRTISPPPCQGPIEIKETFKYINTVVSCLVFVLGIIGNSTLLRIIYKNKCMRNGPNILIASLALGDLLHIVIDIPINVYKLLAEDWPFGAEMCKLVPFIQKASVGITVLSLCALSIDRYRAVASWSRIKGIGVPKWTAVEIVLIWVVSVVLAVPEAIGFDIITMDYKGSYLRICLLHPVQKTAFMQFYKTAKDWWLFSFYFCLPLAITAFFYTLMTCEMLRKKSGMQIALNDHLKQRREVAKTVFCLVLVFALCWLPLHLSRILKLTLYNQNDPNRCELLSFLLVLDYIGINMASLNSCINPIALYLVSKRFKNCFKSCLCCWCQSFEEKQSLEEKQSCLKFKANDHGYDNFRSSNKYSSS
Nature of the assay: Endothelin binding inhibition, Binding Test #2: competition with 125I-ET-1 for ETB receptors on transfected COS7 cell membranes. The note with it: incubation at 24° C. (values marked †).
Excerpt: Compounds that are potential endothelin antagonists are identified by testing their ability to compete with ^125I-labeled ET-1 for binding to human ETA receptors or ETB receptors present on isolated cell membranes. The effectiveness of the test compound as an antagonist or agonist of the biological tissue response of endothelin can also be assessed by measuring the effect on endothelin induced contraction of isolated rat thoracic aortic rings. The ability of the compounds to act as antagonists or agonists for ETB receptors can be assess by testing the ability of the compounds are to inhibit endothelin-1 induced prostacyclin release from cultured bovine aortic endothelial cells.
COS7 cells were transfected with DNA encoding the ETB receptor, The resulting cells, which express the human ETB receptor, were grown to confluence in T-150 flasks. Membrane was prepared as described above. The binding assay was performed as described above using the membrane preparation diluted with binding buffer to a concentration of 1 μg/50 μL.
as §1, with “Briefly, the COS7 cells, described above, that had been transfected with DNA encoding the ETB receptor and express the human ETB receptor on their surfaces were grown to confluence in T-175 flasks. Cells” for “Cells”, “C.” for “C. at”, “once. Five” for “once. 5”, “2 mg/mL.” for “2 mg/mL and stored at −70° C. until use.”
The binding assay was performed as described above using the membrane preparation diluted to give 1 μg/50 μL of binding buffer.
In turn, `Cc1cc2c(cc1C=CCc1ccsc1S(=O)(=O)Nc1onc(C)c1Br)OCO2` [N-(4-bromo-3-methyl-5-isoxazolyl)-3-[2-methyl-4,5-(methylenedioxy)cinnamyl]thiophene-2-sulfonamide] showed a negative logarithm of the IC50 (pIC50) of roughly 5.22.
Same read-out and setting: then `COc1ccc2c(S(=O)(=O)Nc3onc(C)c3Cl)c(Cc3ccc4c(c3)OCO4)sc2c1` [N-(4-chloro-3-methyl-5-isoxazolyl)-6-methoxy-2-[3,4-(methylenedioxy)benzyl]benzo[b]thiophene-3-sulfonamide], with 5.62.
For the molecule `Cc1cc(NC(=O)c2sccc2S(=O)(=O)Nc2onc(C)c2Cl)no1` [N-(4-chloro-3-methyl-5-isoxazolyl)-2-[(5-methyl-3-isoxazolyl)aminocarbonyl]thiophene-3-sulfonamide], the pIC50 is 4.04.
Consider `Cc1noc(NS(=O)(=O)c2ccsc2COc2ccc3c(c2)OCO3)c1Br` [N-(4-bromo-3-methyl-5-isoxazolyl)-2-{[3,4-(methylenedioxy)phenoxy]methyl}thiophene-3-sulfonamide], for which the pIC50 is 5.18.
Take `Cc1ccc(OC(=O)c2sccc2S(=O)(=O)Nc2onc(C)c2Br)cc1` [N-(4-bromo-3-methyl-5-isoxazolyl)-2-[(4-methylphenoxy)carbonyl]thiophene-3-sulfonamide]: the negative-log IC50 (pIC50) is 5.01.
Same read-out and setting: then `Cc1cc(C)c(NC(=O)c2sccc2S(=O)(=O)Nc2onc(C)c2Cl)c(C(N)=O)c1` [N-(4-chloro-3-methyl-5-isoxazolyl)-2-(2-carbamoyl-4,6-dimethylphenylaminocarbonyl)thiophene-3-sulfonamide], with 4.93; and `CC(=O)c1cc2c(cc1NC(=O)c1sccc1S(=O)(=O)Nc1onc(C)c1Cl)OCO2` [N-(4-chloro-3-methyl-5-isoxazolyl)2-{[2-acetyl-4,5-(methylenedioxy)phenyl]aminocarbonyl}thiophene-3-sulfonamide], with 4.50.
On the same count and under the same terms, then `Cc1noc(NS(=O)(=O)c2ccsc2C(=O)c2ccc3c(c2)OCO3)c1Br` [N-(4-bromo-3-methyl-5-isoxazolyl)-2-[(3,4-methylenedioxy)benzoyl]thiophene-3-sulfonamide], with 4.82.
On the same count and under the same terms, to `Cc1noc(NS(=O)(=O)c2ccsc2C(=O)Oc2ccc3c(c2)OCO3)c1C` [N-(3,4-dimethyl-5-isoxazolyl)-2-[3,4-(methylenedioxy)phenoxycarbonyl]thiophene-3-sulfonamide] belongs less than 4.30; to `Cc1cc(C)c(CNC(=O)c2sccc2S(=O)(=O)Nc2onc(C)c2Cl)c(C)c1` [N-(4-chloro-3-methyl-5-isoxazolyl)-2-(2,4,6-trimethylbenzylaminocarbonyl)thiophene-3-sulfonamide], 4.16.
